Laboratory results from US11053218B2, “3-(1-oxoisoindolin-2-yl)piperidine-2,6-dione derivatives and uses thereof” (Novartis AG, priority 2017, dated 2021).
Read-outs that look alike come from different tables or passages of the source.

Experiments:
IKZF2 = IKZF2 (Homo sapiens, UniProt Q96SW2+Q9UKS7); experiment: Prolabel quantification of IKZF2 protein levels in 293GT cells; format: cell-based; conditions: 293GT cells; for inhibition at 10 µM: read-out: IKZF2 % protein reduction at 10 μM, 24 h; for DC50: Prolabel assay, read-out: IKZF2 EC50
Procedure: (§1) The Prolabel system from DiscoverX was used to develop high-throughput and quantitative assays to measure changes in IKZF1, IKZF2 and GSPT1 protein levels in response to compounds. The prolabel tag was derived from the alpha fragment of beta galactosidase and has the following protein sequence: mssnslavvlqrrdwenpgvtqlnrlaahppfaswrnseeartdrpsqqlrslnge. The complementary fragment of beta-galactosidase (from DiscoverX), is added to the prolabel tag to form an active beta galactosidase enzyme whose activity can be precisely measured. In this way, the levels of a fusion protein with the prolabel tag can be quantified in cell lysates.
(§2) Lentiviral vectors, based on the Invitrogen pLenti6.2/V5 DEST backbone, were constructed that placed the prolabel tag upstream of IKZF1, IKZF2 or GSPT1 and expressed the fusion protein from a CMV promoter.
(§3) To ensure moderate and consistent expression of the prolabel fusion proteins across all cells in the population, stable cell lines were constructed from cells expressing a single copy of the construct. Lentivirus packaged with the constructs was made using the Virapower kit from Invitrogen.
(§4) The levels of prolabel tagged fusion proteins in compound treated cell lines were measured as follows:
(§5) Day 1, Cells were diluted to 1.0×10^6 cells/ml in normal growth medium. 17.5 μL of cells were plated in each well of a solid white 384 well plate. Plates were incubated overnight in a 37° C. tissue culture incubator.
(§6) Day 2, Serial dilutions of compounds were made in 384 well plates from 10 mM stocks. 15 μL of DMSO was added to each well of a 384 well plate. In the first column 15 μL of stock compound was added. The solution was mixed and 15 μL was transferred to the next column. This was repeated until 20 two-fold dilutions were prepared. 2.5 μL of diluted compounds were transferred into 60 μL of cell culture medium in another 384 well plate, and mixed well. 2.5 μL of this mixture was added to the plated cells. The final DMSO concentration was 0.5% and the highest concentration of compound was 50 μM. Plates were incubated overnight (e.g., about 14 h, 18 h, or 24 h) in a 37° C. tissue culture incubator.
(§7) Day 3, Plates were removed from the incubator and allowed to equilibrate at rt for 30 minutes. Prolabel substrate (DiscoverX PathHunter Prolabel Detection Kit, User manual: 93-0180) was added as described by the manufacturers protocols. Plates were incubated at rt for three hours and luminescence was read using an Envision reader (Perkin Elmer) Data was analyzed and visualized using the Spotfire software package.

IKZF1 = IKZF1 (Homo sapiens, UniProt Q13422+Q96SW2); experiment: Prolabel quantification of IKZF1 protein levels in 293GT cells; format: cell-based; conditions: Prolabel assay, read-out: IKZF1 EC50
Procedure: as §1, §2, §3, §4, §5, §6, §7

IKZF1, sequence (Q13422 whole entry): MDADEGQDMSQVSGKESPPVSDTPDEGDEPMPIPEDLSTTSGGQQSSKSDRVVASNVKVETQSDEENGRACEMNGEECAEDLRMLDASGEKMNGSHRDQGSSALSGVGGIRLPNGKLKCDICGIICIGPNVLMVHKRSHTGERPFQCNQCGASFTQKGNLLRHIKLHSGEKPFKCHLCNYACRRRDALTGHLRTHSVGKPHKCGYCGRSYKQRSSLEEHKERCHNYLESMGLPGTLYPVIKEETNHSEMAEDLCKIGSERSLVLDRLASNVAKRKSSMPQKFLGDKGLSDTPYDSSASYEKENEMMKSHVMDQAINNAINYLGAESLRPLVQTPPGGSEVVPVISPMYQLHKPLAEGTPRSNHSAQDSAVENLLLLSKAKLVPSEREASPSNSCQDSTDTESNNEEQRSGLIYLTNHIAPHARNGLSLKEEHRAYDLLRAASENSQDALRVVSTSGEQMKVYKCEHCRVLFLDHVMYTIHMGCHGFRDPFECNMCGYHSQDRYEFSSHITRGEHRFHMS
IKZF1, sequence (Q96SW2 whole entry): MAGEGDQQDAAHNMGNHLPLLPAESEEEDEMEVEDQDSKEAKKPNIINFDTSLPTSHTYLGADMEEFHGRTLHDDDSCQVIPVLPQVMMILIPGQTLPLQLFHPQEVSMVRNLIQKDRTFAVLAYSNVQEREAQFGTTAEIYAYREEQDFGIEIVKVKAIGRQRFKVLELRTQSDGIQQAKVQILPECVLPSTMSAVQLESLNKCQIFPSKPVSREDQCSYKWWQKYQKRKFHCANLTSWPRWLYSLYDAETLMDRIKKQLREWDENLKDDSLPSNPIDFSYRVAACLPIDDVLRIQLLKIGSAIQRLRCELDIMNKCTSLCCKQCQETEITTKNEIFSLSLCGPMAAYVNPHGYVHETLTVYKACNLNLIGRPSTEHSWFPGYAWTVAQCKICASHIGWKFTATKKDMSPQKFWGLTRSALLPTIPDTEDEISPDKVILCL
IKZF1, sequence (Q16531 whole entry partner): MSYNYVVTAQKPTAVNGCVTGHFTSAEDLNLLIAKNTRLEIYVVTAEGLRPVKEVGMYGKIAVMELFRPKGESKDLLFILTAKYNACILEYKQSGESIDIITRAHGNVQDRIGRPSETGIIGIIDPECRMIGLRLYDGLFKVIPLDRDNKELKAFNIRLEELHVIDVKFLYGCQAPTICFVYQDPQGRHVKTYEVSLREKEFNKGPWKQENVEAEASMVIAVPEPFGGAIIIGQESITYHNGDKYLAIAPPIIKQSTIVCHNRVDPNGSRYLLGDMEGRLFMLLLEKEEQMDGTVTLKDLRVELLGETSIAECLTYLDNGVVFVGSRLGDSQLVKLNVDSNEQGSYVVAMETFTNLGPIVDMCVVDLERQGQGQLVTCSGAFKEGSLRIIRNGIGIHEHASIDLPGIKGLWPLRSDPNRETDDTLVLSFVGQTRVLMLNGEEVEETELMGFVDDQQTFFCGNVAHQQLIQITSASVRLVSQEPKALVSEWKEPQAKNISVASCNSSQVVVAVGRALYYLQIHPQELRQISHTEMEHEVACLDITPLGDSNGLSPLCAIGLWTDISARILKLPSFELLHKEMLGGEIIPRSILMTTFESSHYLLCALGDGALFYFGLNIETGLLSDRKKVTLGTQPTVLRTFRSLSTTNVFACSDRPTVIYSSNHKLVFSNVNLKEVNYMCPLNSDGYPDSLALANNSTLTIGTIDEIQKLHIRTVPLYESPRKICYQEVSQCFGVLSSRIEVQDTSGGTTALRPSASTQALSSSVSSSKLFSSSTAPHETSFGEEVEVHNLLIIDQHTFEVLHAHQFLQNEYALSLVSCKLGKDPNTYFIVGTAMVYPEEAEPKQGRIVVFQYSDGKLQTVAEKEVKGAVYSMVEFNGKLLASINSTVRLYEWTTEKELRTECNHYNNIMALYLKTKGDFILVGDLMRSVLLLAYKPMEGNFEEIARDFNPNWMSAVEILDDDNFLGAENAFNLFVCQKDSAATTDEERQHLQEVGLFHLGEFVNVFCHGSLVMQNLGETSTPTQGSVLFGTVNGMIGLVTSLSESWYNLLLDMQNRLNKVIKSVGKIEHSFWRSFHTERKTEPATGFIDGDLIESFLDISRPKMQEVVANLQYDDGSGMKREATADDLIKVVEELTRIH
IKZF2, sequence (Q9UKS7 whole entry, the tested form may be a part): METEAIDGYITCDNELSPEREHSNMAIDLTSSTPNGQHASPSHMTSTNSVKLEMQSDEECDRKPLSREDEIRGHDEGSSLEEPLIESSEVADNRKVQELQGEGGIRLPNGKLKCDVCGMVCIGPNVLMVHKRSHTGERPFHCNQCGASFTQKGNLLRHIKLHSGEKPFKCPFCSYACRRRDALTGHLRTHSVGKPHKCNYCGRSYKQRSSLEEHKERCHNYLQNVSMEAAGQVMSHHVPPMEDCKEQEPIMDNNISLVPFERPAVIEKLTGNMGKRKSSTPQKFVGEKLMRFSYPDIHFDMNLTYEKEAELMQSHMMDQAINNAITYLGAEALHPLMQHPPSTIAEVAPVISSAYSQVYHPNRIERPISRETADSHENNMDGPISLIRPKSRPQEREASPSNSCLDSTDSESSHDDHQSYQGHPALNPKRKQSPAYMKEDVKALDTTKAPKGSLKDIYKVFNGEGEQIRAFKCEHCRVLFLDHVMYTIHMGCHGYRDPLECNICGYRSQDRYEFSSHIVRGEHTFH
IKZF2, sequence (Q96SW2 whole entry, the tested form may be a part): as the sequence (Q96SW2 whole entry) above
IKZF2, sequence (Q16531 whole entry partner, the tested form may be a part): as the sequence (Q16531 whole entry partner) above

Structure (SMILES)	inhibition at 10 µM (IKZF2; 24 h, 10 μM, 24 h)	DC50 (IKZF2)	DC50 (IKZF1)	IKZF2 % protein reduction at 10 μM, 24 h (IKZF2; 10 μM, 24 h)	inhibition at 10 µM (IKZF2; 10 μM, 24 h)
O=C1CCC(N2Cc3cc(C4CCCN(Cc5ccccc5)CC4)ccc3C2=O)C(=O)N1 (single isomer, unassigned) [Compound I-190, 3-(5-(1-benzylazepan-4-yl)-1-oxoisoindolin-2-yl)piperidine-2,6-dione]	30%	170 nM	> 30000 nM	–	–
O=C1CCC(N2Cc3cc(C4CCN([C@@H](CO)c5ccccc5)CC4)ccc3C2=O)C(=O)N1 (single isomer, unassigned) [Compound I-202]	40%	590 nM	> 30000 nM	–	–
C[C@H](c1ccccc1)N1CCC(c2ccc3c(c2)CN(C2CCC(=O)NC2=O)C3=O)CC1 (single isomer, unassigned) [Compound I-247]	70%	17 nM	> 30000 nM	–	–
O=C1CCC(N2Cc3cc(C4CCN(C(CO)c5ccccc5)CC4)ccc3C2=O)C(=O)N1 (single isomer, unassigned) [Compound I-249]	40%	850 nM	> 30000 nM	–	–
O=C1CCC(N2Cc3cc(C4CCCN(Cc5ccccc5)CC4)ccc3C2=O)C(=O)N1 (single isomer, unassigned) [Compound I-273, 3-(5-(1-benzylazepan-4-yl)-1-oxoisoindolin-2-yl)piperidine-2,6-dione]	–	210 nM	> 30000 nM	20%	–
CCN1CCC(c2ccc3c(c2)CN(C2CCC(=O)NC2=O)C3=O)CC1 (stereo not drawn) [Compound I-1, 3-(5-(1-ethylpiperidin-4-yl)-1-oxoisoindolin-2-yl)piperidine-2,6-dione]	–	67 nM	> 30000 nM	–	60%
O=C1CCC(N2Cc3cc(C4CCN(CC5CC5)CC4)ccc3C2=O)C(=O)N1 (stereo not drawn) [Compound I-3, 3-(5-(1-(cyclopropylmethyl)piperidin-4-yl)-1-oxoisoindolin-2-yl)piperidine-2,6-dione]	60%	23 nM	> 30000 nM	–	–
CC(C)CN1CCC(c2ccc3c(c2)CN(C2CCC(=O)NC2=O)C3=O)CC1 (stereo not drawn) [Compound I-4, 3-(5-(1-isobutylpiperidin-4-yl)-1-oxoisoindolin-2-yl) piperidine-2,6-dione]	60%	31 nM	> 30000 nM	–	–
O=C1CCC(N2Cc3cc(C4CCN(CC5CCC5)CC4)ccc3C2=O)C(=O)N1 (stereo not drawn) [Compound I-5, 3-(5-(1-(cyclobutylmethyl)piperidin-4-yl)-1-oxoisoindolin-2-yl)piperidine-2,6-dione]	60%	27 nM	> 30000 nM	–	–
O=C1CCC(N2Cc3cc(C4CCN(Cc5cnc(Cl)s5)CC4)ccc3C2=O)C(=O)N1 (stereo not drawn) [Compound I-10, 3-(5-(1-((2-chlorothiazol-5-yl)methyl)piperidin-4-yl)-1-oxoisoindolin-2-yl)piperidine-2,6-dione]	60%	85 nM	> 30000 nM	–	–
O=C1CCC(N2Cc3cc(C4CCN(CC5CCOCC5)CC4)ccc3C2=O)C(=O)N1 (stereo not drawn) [Compound I-13, 3-(1-oxo-5-(1-((tetrahydro-2H-pyran-4-yl)methyl)piperidin-4-yl)isoindolin-2-yl)piperidine-2,6-dione]	60%	29 nM	> 30000 nM	–	–
O=C1CCC(N2Cc3cc(C4CCN(Cc5ccccc5Cl)CC4)ccc3C2=O)C(=O)N1 (stereo not drawn) [Compound I-18, 3-(5-(1-(2-chlorobenzyl)piperidin-4-yl)-1-oxoisoindolin-2-yl)piperidine-2,6-dione]	65%	19 nM	> 30000 nM	–	–
O=C1CCC(N2Cc3cc(C4CCN(Cc5c(F)cccc5F)CC4)ccc3C2=O)C(=O)N1 (stereo not drawn) [Compound I-24, 3-(5-(1-(2,6-difluorobenzyl)piperidin-4-yl)-1-oxoisoindolin-2-yl)piperidine-2,6-dione]	60%	39 nM	> 30000 nM	–	–
O=C1CCC(N2Cc3cc(C4CCN(Cc5cc(F)ccc5F)CC4)ccc3C2=O)C(=O)N1 (stereo not drawn) [Compound I-29, 3-(5-(1-(2,5-difluorobenzyl)piperidin-4-yl)-1-oxoisoindolin-2-yl)piperidine-2,6-dione]	70%	36 nM	> 30000 nM	–	–
O=C1CCC(N2Cc3cc(C4CCN(Cc5ccc(CO)cc5)CC4)ccc3C2=O)C(=O)N1 (stereo not drawn) [Compound I-32, 3-(5-(1-(4-(hydroxymethyl)benzyl)piperidin-4-yl)-1-oxoisoindolin-2-yl)piperidine-2,6-dione]	80%	46 nM	> 30000 nM	–	–
N#Cc1ccccc1CN1CCC(c2ccc3c(c2)CN(C2CCC(=O)NC2=O)C3=O)CC1 (stereo not drawn) [Compound I-38, 2-((4-(2-(2,6-dioxopiperidin-3-yl)-1-oxoisoindolin-5-yl)piperidin-1-yl)methyl)benzonitrile]	55%	41 nM	> 30000 nM	–	–
O=C1CCC(N2Cc3cc(C4CCN(Cc5ccc(OC(F)(F)F)cc5)CC4)ccc3C2=O)C(=O)N1 (stereo not drawn) [Compound I-51, 3-(1-oxo-5-(1-(4-(trifluoromethoxy)benzyl)piperidin-4-yl)isoindolin-2-yl)piperidine-2,6-dione]	60%	15 nM	> 30000 nM	–	–
O=C1CCC(N2Cc3cc(C4CCN(Cc5cccc(OC(F)(F)F)c5)CC4)ccc3C2=O)C(=O)N1 (stereo not drawn) [Compound I-54, 3-(1-oxo-5-(1-(3-(trifluoromethoxy)benzyl)piperidin-4-yl)isoindolin-2-yl)piperidine-2,6-dione]	60%	20 nM	> 30000 nM	–	–
O=C1CCC(N2Cc3cc(C4CCN(Cc5ccccn5)CC4)ccc3C2=O)C(=O)N1 (stereo not drawn) [Compound I-58, 3-(1-oxo-5-(1-(pyridin-2-ylmethyl)piperidin-4-yl)isoindolin-2-yl)piperidine-2,6-dione]	60%	53 nM	> 30000 nM	–	–

Stronger by DC50 (IKZF2), values ahead:

inhibition at 10 µM (IKZF2; 24 h, 10 μM, 24 h)	DC50 (IKZF2)	DC50 (IKZF1)	IKZF2 % protein reduction at 10 μM, 24 h (IKZF2; 10 μM, 24 h)	Structure (SMILES)	inhibition at 10 µM (IKZF2; 10 μM, 24 h)
65%	9 nM	> 30000 nM	–	CC(c1ccccc1)N1CCC(c2ccc3c(c2)CN(C2CCC(=O)NC2=O)C3=O)CC1 (single isomer, unassigned) [Compound I-230]	–
65%	14 nM	> 30000 nM	–	O=C1CCC(N2Cc3cc(C4CCN(CCc5ccccc5)CC4)ccc3C2=O)C(=O)N1 (stereo not drawn) [Compound I-14, 3-(1-oxo-5-(1-phenethylpiperidin-4-yl)isoindolin-2-yl)piperidine-2,6-dione]	–
70%	8 nM	> 30000 nM	–	O=C1CCC(N2Cc3cc(C4CCN(Cc5cccc(Cl)c5)CC4)ccc3C2=O)C(=O)N1 (stereo not drawn) [Compound I-16, 3-(5-(1-(3-chlorobenzyl)piperidin-4-yl)-1-oxoisoindolin-2-yl)piperidine-2,6-dione]	–
65%	7 nM	> 30000 nM	–	O=C1CCC(N2Cc3cc(C4CCN(Cc5cc(F)cc(F)c5)CC4)ccc3C2=O)C(=O)N1 (stereo not drawn) [Compound I-26, 3-(5-(1-(3,5-difluorobenzyl)piperidin-4-yl)-1-oxoisoindolin-2-yl)piperidine-2,6-dione]	–
60%	9 nM	> 30000 nM	–	Cc1ccc(CN2CCC(c3ccc4c(c3)CN(C3CCC(=O)NC3=O)C4=O)CC2)c(C)c1 (stereo not drawn) [Compound I-42, 3-(5-(1-(2,4-dimethylbenzyl)piperidin-4-yl)-1-oxoisoindolin-2-yl)piperidine-2,6-dione]	–
80%	8 nM	> 30000 nM	–	CC(C)c1ccc(CN2CCC(c3ccc4c(c3)CN(C3CCC(=O)NC3=O)C4=O)CC2)cc1 (stereo not drawn) [Compound I-45, 3-(5-(1-(4-isopropylbenzyl)piperidin-4-yl)-1-oxoisoindolin-2-yl)piperidine-2,6-dione]	–
80%	8 nM	> 30000 nM	–	O=C1CCC(N2Cc3cc(C4CCN(Cc5ccc6ccccc6c5)CC4)ccc3C2=O)C(=O)N1 (stereo not drawn) [Compound I-47, 3-(5-(1-(naphthalen-2-ylmethyl)piperidin-4-yl)-1-oxoisoindolin-2-yl)piperidine-2,6-dione]	–
60%	4 nM	> 30000 nM	–	O=C1CCC(N2Cc3cc(C4CCN(Cc5cccc6ccccc56)CC4)ccc3C2=O)C(=O)N1 (stereo not drawn) [Compound I-49, 3-(5-(1-(naphthalen-1-ylmethyl)piperidin-4-yl)-1-oxoisoindolin-2-yl)piperidine-2,6-dione]	–
